The nature of the data set: recombinant barcode read abundance after kanamycin selection (control-corrected) (log10(CPM+1)); higher = more efficient recombination; sequences stand for … in AGTGCAGAGAAAATCGGCCAGTTTTCTCTGCCTGCAGTCCGCATGCCGT…AGATTTATGCAGCGGACTGCCTTTCTCCCAAAGTGATAAACCGGACAGTATCATGGACCGGTTTTCCCGGTAATCCGTATTTGCAAGGTTGGTTTCACT; site = the 11-nt target. The method in brief:
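Recombination efficiency comes from barcode counts at recombinant junctions, converted to counts per million, averaged and corrected against the control. Values appear as log10(CPM+1). They were obtained from a pooled E. coli screen in which each oligo paired a target with an IS621 bridge RNA target-binding loop, and cells were plated in duplicate on chloramphenicol/ampicillin LB agar or on chloramphenicol/ampicillin/kanamycin with 0.1 mM IPTG.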
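Further: IS621 recombinase and bridge RNA in Escherichia coli cells.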

Consider “TCTTTACCTTGGGTTCTAACCTGTTGCCT (site GCTTTACCTAG)”, for which the “recombinant barcode read abundance (log10)” value worked out at 0.043.

In the case of “TCTTTACCTTGGGTTCTAACCTGTTGCCT (site TCTTTACCTAG)”, the “recombinant barcode read abundance (log10)” value worked out at 0.0757.

As for “TGAAATCCTTGGGTTCTAACCTGTTGCCT (site GGATATCCTAG)”, the “recombinant barcode read abundance (log10)” value was 0.848.

As for “TGAAATCCTTGGGTTCTAACCTGTTGCCT (site TGAAATCCTAG)”, the “recombinant barcode read abundance (log10)” value was determined as 0.304.

For the sequence “TGAATTACTTGGGTTCTAACCTGTTGCCT (site TGAAATACTAG)”, the “recombinant barcode read abundance (log10)” value was 0.116.

Turning to “TGAATTACTTGGGTTCTAACCTGTTGCCT (site TGAACTACTAG)”, the “recombinant barcode read abundance (log10)” value worked out at 0.108.

In the case of “TGAATTACTTGGGTTCTAACCTGTTGCCT (site TGAAGTACTAG)”, the “recombinant barcode read abundance (log10)” value stood at 0.033.

As for “TGAATTACTTGGGTTCTAACCTGTTGCCT (site TGAATTACTAG)”, the “recombinant barcode read abundance (log10)” value was determined as 0.102.

Regarding “TGACGTCCTTGGGTTCTAACCTGTTGCCT (site TGACGTCCTAA)”, the “recombinant barcode read abundance (log10)” value is 0.455.

Turning to “TGACGTCCTTGGGTTCTAACCTGTTGCCT (site TGACGTCCTAC)”, the “recombinant barcode read abundance (log10)” value worked out at 0.315.

Regarding “TGACGTCCTTGGGTTCTAACCTGTTGCCT (site TGACGTCCTAG)”, the “recombinant barcode read abundance (log10)” value was 0.253.

For the sequence “TGACGTCCTTGGGTTCTAACCTGTTGCCT (site TGACGTCCTAT)”, the “recombinant barcode read abundance (log10)” value is 0.057.

“TGACGTCCTTGGGTTCTAACCTGTTGCGT (site TGACGTCCTAA)”: the “recombinant barcode read abundance (log10)” value was 0.0894.

As to “TGACGTCCTTGGGTTCTAACCTGTTGCGT (site TGACGTCCTAC)”, the “recombinant barcode read abundance (log10)” value was found to be 1.72.

In the case of “TGACGTCCTTGGGTTCTAACCTGTTGCGT (site TGACGTCCTAG)”, the “recombinant barcode read abundance (log10)” value worked out at 0.0763.

On to “TGACGTCCTTGGGTTCTAACCTGTTGCGT (site TGACGTCCTAT)”, for which the “recombinant barcode read abundance (log10)” value was found to be 0.286.

On to “TGACGTTCTTGGGTTCTAACCTGTTGCCT (site TGACCTTCTAG)”, for which the “recombinant barcode read abundance (log10)” value is 0.189.

On to “TGACGTTCTTGGGTTCTAACCTGTTGCCT (site TGACGTTCTAG)”, for which the “recombinant barcode read abundance (log10)” value is 0.313.

In the case of “TGAGAGACTTGGGTTCTAACCTGTTGCGT (site ATGAGTCCTTT)”, the “recombinant barcode read abundance (log10)” value came out at 0.0989.

As for “TGAGAGACTTGGGTTCTAACCTGTTGCGT (site TGAGAGACTAC)”, the “recombinant barcode read abundance (log10)” value came out at 2.94.

In the case of “TGAGGTGCTTGGGTTCTAACCTGTTGCCT (site GGAGGGGCTAG)”, the “recombinant barcode read abundance (log10)” value was 0.193.

“TGAGGTGCTTGGGTTCTAACCTGTTGCCT (site TGAGGTGCTAG)”: the “recombinant barcode read abundance (log10)” value amounted to 0.818.

For “TGATCCACTTGGGTTCTAACCTGTTGCCT (site AGATCCACTAG)”, the “recombinant barcode read abundance (log10)” value was found to be 0.0667.

On to “TGATCCACTTGGGTTCTAACCTGTTGCCT (site CGATCCACTAG)”, for which the “recombinant barcode read abundance (log10)” value is 0.0881.

With “TGATCCACTTGGGTTCTAACCTGTTGCCT (site GGATCCACTAG)”, the “recombinant barcode read abundance (log10)” value amounted to 0.0751.

As to “TGATCCACTTGGGTTCTAACCTGTTGCCT (site TGATCCACTAG)”, the “recombinant barcode read abundance (log10)” value stood at 0.596.

Consider “TGATCTACTTGGGTTCTAACCTGTTGCTT (site TGATCTACTAA)”, for which the “recombinant barcode read abundance (log10)” value was determined as 0.0729.

In the case of “TGATCTACTTGGGTTCTAACCTGTTGCTT (site TGCTCTACTAA)”, the “recombinant barcode read abundance (log10)” value came out at 0.0846.

As to “TGATCTACTTGGGTTCTAACCTGTTGCTT (site TGGTCTACTAA)”, the “recombinant barcode read abundance (log10)” value was found to be 0.0447.

As to “TGATCTACTTGGGTTCTAACCTGTTGCTT (site TGTTCTACTAA)”, the “recombinant barcode read abundance (log10)” value stood at 0.0588.

For “TGCAAGTCTTGGGTTCTAACCTGTTGCCT (site TGCAAGTCTAG)”, the “recombinant barcode read abundance (log10)” value came to 0.361.

Turning to “TGCAAGTCTTGGGTTCTAACCTGTTGCCT (site TGCGAGTCTAG)”, the “recombinant barcode read abundance (log10)” value amounted to 0.137.

For the origin of these results see the supplement of paper PMC11208160.
